Measured values reported in patent US20240262835A1, “PRMT5 INHIBITING COMPOUNDS AND USES THEREOF” (ANTENGENE DISCOVERY LIMITED, priority 2023, published 2024).
Where two headings read alike, the source gives them in different places.

Tests used:
[1] = test system: HCT116 parental (wild type) cells; experiment: HCT116 cell proliferation assay (CTG), parental cells; format: cell-based, human; conditions: Cell Titer-Glo
Description: (§1) Control samples were analyzed in parallel.
(§2) On Day 0, 150 HCT116 parental or HCT116 homozygous MTAP knockout cells were seeded in 96-well plates in McCoy's 5A medium containing 10% fetal bovine serum and pen/strep. And the cells were incubated overnight at 37° C. and 5% CO2.
(§3) On Day 1, cells were treated with 9-point serial dilution of compound, using a top concentration of 50 μM, 1:5 serial dilution steps and, a DMSO-only control. And cells were incubated for 6 days.
(§4) On Day 7, cell viability was measured using a CTG assay Kit (Cell Titer-Glo; Promega, catalog no.: G7573) in accordance with the manufacturer's instructions. Assays plates were read on a EnVision™ Multilabel Reader using the Ultra-Sensitive luminescence model. The data were analyzed by GraphPad Prism 5.0 software, and the dose-effect curve was obtained by fitting the data using nonlinear S-curve regression, from which the IC50 value was calculated.

[2] = test system: HCT116 homozygous MTAP knockout cells; experiment: HCT116 cell proliferation assay (CTG), MTAP knockout cells; format: cell-based, human; conditions: Cell Titer-Glo
Description: as §1, §2, §3, §4

[3] = In vivo pharmacokinetics assay in mice via IV and PO; set-up: species or system ICR mice; conditions: for Mean Concentration In brain / Mean Concentration In plasma / B/P ratio: PO (Group 4 design: 30 mg/kg); for B/P ratio: brain to plasma, one value for 2 h and 4 h
Description: Pharmacokinetics assay for test compounds was performed in mice via IV and PO.
Test compound solution was prepared on the day of administration.
Solvent: IV+PO: 5% DMSO+10% Soultol+85% H2O or saline
Species: ICR mice; SPF level.
Source: Beijing Vital River Laboratory Animal Technology Co., Ltd.
Animal selection: Males. No random grouping
Weighed before dosing, calculated dosage according to body weight. For Groups 1-3, the drug was administered intravenously or intragastrically. For Group 4, the drug administered intragastrically.
For Groups 1-3, at 0.083 h, 0.25 h, 0.5 h, 1 h, 2 h, 4 h, 6 h, 8 h, 24 h, after administration. For Group 4, at 2 h and 4 h after administration.
Blood was collected through the cheeks. For each sample, about 0.05 mL of blood was collected and was added heparin sodium or EDTA-2K as anticoagulant, and was placed on wet ice.
The blood samples were collected and placed on ice and was centrifuged within 1 hour (centrifugation: 6000 g, 3 minutes, 2-8° C.) to separate plasma. Plasma samples were stored in a −80° C. refrigerator prior to analysis.
The pharmacokinetic parameters were calculated using Phoenix WinNonlin8.2.0 based on the blood concentration data at different time points, and AUC0-t, AUC0-∞, MRT0-∞, Cmax, Tmax, and T1/2 and mean values and standard deviations thereof were provided.

[4] = in vitro; conditions: dog, microsomes
[5] = target: CYP1A2 (Homo sapiens (Human), UniProt P05177); conditions: microsomes
Description: (§5) CYP isoforms inhibitory activities of test compounds were measured in human liver microsome.
(§6) Preparation details of these substrates are given in below table. The substrate stock solution was stored in a −20° C. freezer. Prior to use, the substrate stock solution was removed from the freezer and allowed to rise to room temperature. Then the substrate stock solution was mixed on a whirly mixer for 30 seconds.
(§7) HLMs were stored in a −80° C. freezer. Prior to use, the pooled HLM was removed from the freezer and allowed to thaw in a 37° C. water bath and then stored on wet ice.
(§8) The positive control inhibitors and their concentrations used by each isozyme are summarized below.
(§9) All samples were incubated in a 37° C. water bath, with three parallels for each concentration of the test compound and two parallels for each concentration of the positive control inhibitor. 100 μL of microsome working solution was taken and added 2 μL of the test product or positive inhibitor working solution. 2 μL solvents was added to the solvent control, and put in a water bath to pre-incubate for 10 min. After pre-incubation, 98 μL of NADPH regeneration solution was added to all samples to start the reaction. Then the mixture was put back in the water bath and incubated for a certain period of time.
(§10) The reaction was quenched by 200 μL stop solution. […]
(§11) IC50 values were determined using 3- or 4-parameter logistic equation.

[6] = target: CYP2C9 (Homo sapiens (Human), UniProt P11712); experiment: CYP isoforms inhibitory assay in human liver microsome, CYP2C9; format: in vitro ADME; conditions: substrate diclofenac
Description: as §5, §6, §7, §8, §9, §10, §11

[7] = target: CYP3A4 (Homo sapiens (Human), UniProt P08684); experiment: CYP isoforms inhibitory assay in human liver microsome, CYP3A4
Description: as §5, §6, §7, §8, §9, §10, §11

[8] = test system: cryopreserved hepatocytes
Description: 1) 10 mM test compounds were provided.
(§12) 2) 30 mM positive control stock solutions: Dissolved accurate amount of positive control compounds in dimethyl sulfoxide (DMSO).
(§13) 3) 1000× Stock Solution: Diluted 10 mM test compounds and 30 mM positive control compounds to 1 mM and 3 mM with DMSO in 96-well plates.
(§14) 4) 100× Dosing Solution: Diluted 1 mM test compounds and 3 mM positive control compounds to 100 μM and 300 μM dosing solutions with ACN.
(§15) 5) Preparation of 0.5×10^6/mL cells suspension: cryopreserved cells were thawed, isolated and suspended in Incubation Medium, then diluted with pre-warmed Incubation Medium to 0.5×10^6 cells/mL.
(§16) 6) Add 198 μL of pre-warmed cell suspensions in 96-well plates.
(§17) 7) Preparation of Quenching Plate: Transfer 125 μL of stop solution in a set of pre-labeled 96-well plates.
(§18) 8) Spike 2 μL dosing solution to each well of 96-well plates in duplicate.
(§19) 9) For TO Samples, mix to achieve a homogenous suspension for about 1 min, then immediately transfer 25 μL of each sample into well containing 125 μL of ice-cold stop solution followed by mixing.
(§20) 10) Incubate all plates at 37° C. in a 95% humidified incubator at 5% CO2 to start the reactions with constant shaking.
(§21) 11) At 15, 30, 60 and 90 min, mix samples and then transfer 25 μL of each sample at each time point to well containing 125 μL of ice-cold stop solution followed by mixing.
(§22) 12) Medium Control (MC) sample plates (labeled as TO-MC and T90-MC) are prepared in the same way as cell incubation except that medium was used instead of cell suspension.
(§23) 13) At each corresponding time point, stop the reactions by removing the plates from incubator and mixing with 125 μL of ice-cold stop solution.
(§24) 14) Vortex the plates immediately on a plate shaker at 600 rpm for 10 minutes. Then, centrifuge all sample plates at 3220×g for 20 min at 4° C.
(§25) 15) After centrifugation, 80 μL/well of supernatant in the sample plates are transferred to another set of pre-labeled 96-well plates which containing 240 μL of ultra pure water according to the plate map.
(§26) 16) Analytical plates are sealed and store at 4° C. until LC-MS/MS analysis.
(§27) The remaining percents of test articles after incubation were calculated by the follow equations:
(§28) Use the following equation of first order kinetics to calculate T1/2 and CLint:

[9] = microsomes; for T1/2 of LMS, D / CLint (mic) D: dog
[10] = test system: cryopreserved hepatocytes; experiment: Hepatic metabolic stability (HMS) assay, rat hepatocytes; conditions: for T1/2 (hepatocytes) R / CLint (liver) R: rat hepatocytes; for T1/2 (hepatocytes) R: 1 μM test compound (3 μM positive control); for CLint (liver) R: scaled to liver; for CLint (hep) R: rat, hepatocytes
Description: 1) 10 mM test compounds were provided.
as §12, §13, §14, §15, §16, §17, §18, §19, §20, §21, §22, §23, §24, §25, §26, §27, §28

[11] = test system: cryopreserved hepatocytes; experiment: Hepatic metabolic stability (HMS) assay, dog hepatocytes; conditions: for T1/2 (hepatocytes) D / CLint (liver) D: dog hepatocytes; for T1/2 (hepatocytes) D: 1 μM test compound (3 μM positive control); for CLint (liver) D: scaled to liver; for CLint (hep) D: dog, hepatocytes
Description: 1) 10 mM test compounds were provided.
as §12, §13, §14, §15, §16, §17, §18, §19, §20, §21, §22, §23, §24, §25, §26, §27, §28

[12] = Liver microsome metabolic stability (LMS) assay, cynomolgus monkey
[13] = Homo sapiens, HCT-116, 6 days treatment

Chain of CYP3A4 (P08684 whole entry, canonical isoform): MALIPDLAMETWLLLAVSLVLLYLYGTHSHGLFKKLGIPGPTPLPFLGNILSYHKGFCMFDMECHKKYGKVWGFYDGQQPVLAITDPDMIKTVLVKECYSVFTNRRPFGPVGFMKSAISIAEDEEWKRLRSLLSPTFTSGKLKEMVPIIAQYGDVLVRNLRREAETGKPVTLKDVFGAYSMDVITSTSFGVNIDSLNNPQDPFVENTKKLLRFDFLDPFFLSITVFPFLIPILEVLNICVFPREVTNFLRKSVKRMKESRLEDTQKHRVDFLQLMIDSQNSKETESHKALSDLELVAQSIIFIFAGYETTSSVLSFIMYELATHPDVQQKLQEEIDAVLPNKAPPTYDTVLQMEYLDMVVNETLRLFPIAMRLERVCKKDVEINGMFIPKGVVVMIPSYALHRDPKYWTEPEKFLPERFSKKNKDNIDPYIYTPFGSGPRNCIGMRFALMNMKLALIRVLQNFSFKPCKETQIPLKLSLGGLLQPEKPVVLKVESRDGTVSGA
Chain of CYP1A2 (P05177 whole entry, canonical isoform): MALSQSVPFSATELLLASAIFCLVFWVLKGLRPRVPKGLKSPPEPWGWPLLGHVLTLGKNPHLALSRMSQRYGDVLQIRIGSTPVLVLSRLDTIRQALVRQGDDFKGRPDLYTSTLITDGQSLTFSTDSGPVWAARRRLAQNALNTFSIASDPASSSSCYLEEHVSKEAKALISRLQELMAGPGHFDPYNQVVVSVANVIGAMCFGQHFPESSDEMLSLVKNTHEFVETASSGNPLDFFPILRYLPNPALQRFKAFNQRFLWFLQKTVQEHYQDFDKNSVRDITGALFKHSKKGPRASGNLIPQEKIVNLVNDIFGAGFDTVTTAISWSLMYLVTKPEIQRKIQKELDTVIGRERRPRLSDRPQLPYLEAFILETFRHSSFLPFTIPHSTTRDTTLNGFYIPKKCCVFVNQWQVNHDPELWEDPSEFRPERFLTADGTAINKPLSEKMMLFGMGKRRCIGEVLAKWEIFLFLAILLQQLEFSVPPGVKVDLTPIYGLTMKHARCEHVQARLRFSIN
Chain of CYP2C9 (P11712 whole entry, canonical isoform): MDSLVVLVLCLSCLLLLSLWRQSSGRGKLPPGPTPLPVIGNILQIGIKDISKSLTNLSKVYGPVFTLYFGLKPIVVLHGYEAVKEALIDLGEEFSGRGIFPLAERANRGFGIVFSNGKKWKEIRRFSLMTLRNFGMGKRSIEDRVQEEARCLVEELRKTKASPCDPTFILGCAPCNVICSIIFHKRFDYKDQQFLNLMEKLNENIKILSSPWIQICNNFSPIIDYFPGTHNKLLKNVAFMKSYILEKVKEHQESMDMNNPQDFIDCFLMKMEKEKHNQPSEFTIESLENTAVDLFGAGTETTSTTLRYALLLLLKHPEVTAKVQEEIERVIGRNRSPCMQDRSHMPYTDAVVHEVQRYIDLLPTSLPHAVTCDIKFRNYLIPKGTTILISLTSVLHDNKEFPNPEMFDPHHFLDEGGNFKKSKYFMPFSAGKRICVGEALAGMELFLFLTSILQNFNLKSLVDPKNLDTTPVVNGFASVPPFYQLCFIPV

SMILES | IC50 ([1]; 6 days treatment) [µM] | IC50 ([2]; 6 days treatment) [µM] | Cl ([3]; IV 1.0 mg/kg) [mL/min/kg] | AUC0-t ([3]; PO 10 mg/kg) [ng·h/mL] | T1/2 ([3]; PO 10 mg/kg) [h] | C8 h ([3]; PO 10 mg/kg, plasma) [ng/mL] | C24 h ([3]; PO 10 mg/kg, plasma) [ng/mL] | Cmax ([3]; PO 10 mg/kg, plasma) [ng/mL] | AUC0-t ([3]; PO 30 mg/kg) [ng·h/mL] | T1/2 ([3]; PO 30 mg/kg) [h] | C8 h ([3]; PO 30 mg/kg, plasma) [ng/mL] | C24 h ([3]; PO 30 mg/kg, plasma) [ng/mL] | Cmax ([3]; PO 30 mg/kg, plasma) [ng/mL] | T1/2 of LMS, D [9] [h] | T1/2 (hepatocytes) R [10] [h] | CLint (liver) R [10] [mL/min/kg] | CLint (hep) R [10] [μL/min/10^6] | T1/2 (hepatocytes) D [11] [h] | CLint (liver) D [11] [mL/min/kg] | CLint (hep) D [11] [μL/min/10^6] | further results
CN(C(=O)c1ccc2nc(N)c3cncn3c2c1)[C@@H]1COc2cc(C(F)(F)F)ccc21 [Compound 12] | – | – | – | – | – | – | – | – | – | – | – | – | – | – | – | – | – | – | – | – | IC50 [1, 13]: 5.16 µM; IC50 [2, 13]: 0.043 µM; clearance ([3]; male, ICR, mouse, plasma, IV 1.0 mg/kg): 3.48 mL/min/kg; half-life at 1 μM [4]: > 2.42 h
CN(C(=O)c1ccc2nc(N)c3cncn3c2c1)C1COc2cc(C(F)(F)F)ccc21 (stereo not drawn) [Compound 17] | 4.08 | 0.032 | 3.10 | 50800 | 5.07 | 2287 | 257 | 4627 | 174589 | 4.87 | 8260 | 860 | 16233 | >2.42 | – | – | – | – | – | – | AUC0-t ([3]; IV 1.0 mg/kg): 5219 ng·h/mL; T1/2 ([3]; IV 1.0 mg/kg): 5.05 h; Cmax ([3]; IV 1.0 mg/kg, plasma): 965 ng/mL; Mean Concentration In brain ([3]; 2 h): 3308 ± 1056 ng/g; Mean Concentration In plasma ([3]; 2 h): 14843 ± 4945 ng/mL; Mean Concentration In brain ([3]; 4 h): 2668 ± 224 ng/g; Mean Concentration In plasma ([3]; 4 h): 13667 ± 1365 ng/mL; B/P ratio [3]: 21%; IC50 [5]: > 30 µM; IC50 [6]: > 30 µM; IC50 ([7]; microsomes): 27.3 µM; IC50 ([7]; read-out: IC50 CYP3A4 (midazolam), human liver microsome, substrate midazolam): > 30 µM; CLint (liver) M [8]: 183.3 mL/min/kg; CLint (hep) M ([8]; mouse): 15.4 μL/min/10^6; T1/2 (hepatocytes) M ([8]; mouse): 1.5 h
CN(C(=O)c1cc2c(cn1)nc(N)c1cncn12)C1COc2cc(C(F)(F)F)ccc21 (stereo not drawn) [Compound 19] | 3.06 | 0.039 | 4.38 | 32782 | 4.88 | 1833 | 178 | 2620 | 94249 | 5.26 | 4817 | 540 | 8117 | >2.42 | 2.443 | 44.3 | 9.5 | >3.613 | <44 | <6.4 | CLint (mic) D [9]: <9.6 µL/min/mg; CLint (liver) D [9]: <13.8 mL/min/kg
CN(C(=O)c1cc2c(cn1)nc(N)c1cncn12)C1COc2cc(C(F)(F)F)ccc21 (stereo not drawn) [Compound 21] | – | – | 3.94 | 43397 | 6.67 | 2537 | 415 | 2820 | 124997 | 6.45 | 6880 | 1257 | 8710 | >2.42 | 2.983 | 36.2 | 7.7 | >3.613 | <44 | <6.4 | CLint (mic) D [9]: <9.6 µL/min/mg; CLint (liver) D [9]: <13.8 mL/min/kg
CN(C(=O)c1cc2c(cn1)nc(N)c1cncn12)C1CC(F)(F)c2cc(C(F)(F)F)ccc21 (stereo not drawn) [Compound 24] | 3.93 | 0.052 | 2.41 | 44942 | 4.41 | 2598 | 186 | 3355 | – | – | – | – | – | – | 1.797 | 60.2 | 12.9 | 3.577 | 44.4 | 6.5 | AUC0-t ([3]; PO 50 mg/kg): 130284 ng·h/mL; T1/2 ([3]; PO 50 mg/kg): 3.23 h; C8 h ([3]; PO 50 mg/kg, plasma): 4983 ng/mL; C24 h ([3]; PO 50 mg/kg, plasma): 178 ng/mL; Cmax ([3]; PO 50 mg/kg, plasma): 15733 ng/mL; Mean Concentration In brain ([3]; 2 h): 3132 ± 1647 ng/g; Mean Concentration In plasma ([3]; 2 h): 6327 ± 2604 ng/mL; Mean Concentration In brain ([3]; 4 h): 3084 ± 145 ng/g; Mean Concentration In plasma ([3]; 4 h): 5983 ± 361 ng/mL; B/P ratio [3]: 51%; CLint (mic) C ([12]; cynomolgus monkey liver microsome): 9.9 µL/min/mg; T1/2 of LMS, C ([12]; cynomolgus monkey liver microsome 0.5 mg protein/mL, 1 μM, NADPH): 2.338 h; CLint (liver) C ([12]; cynomolgus monkey liver microsome, scaled to liver): 13.3 mL/min/kg
